These results are taken from ChEMBL document CHEMBL3046779, “Synthesis and anti-juvenile hormone activity of ethyl 4-[(6-substituted 2,2-dimethyl-2H-chromen-7-yl)methoxy]benzoates” (2010).

What all share (type): functional
The test system of experiment [1] is Bombyx mori. Put plainly: Antijuvenile hormone activity against allatectomized third-instar larvae of Bombyx mori assessed as number of larvae transformed into fifth instar larvae at 1 ug/larva (reference value: 0).
Experiment [2] has as its system Bombyx mori. Put plainly: Antijuvenile hormone activity against allatectomized third-instar larvae of Bombyx mori assessed as number of larvae transformed into precocious pupa at 1 ug/larva (reference value: 10).
Experiment [3] concerns Bombyx mori. Put plainly: Antijuvenile hormone activity against allatectomized third-instar larvae of Bombyx mori assessed as number of larvae transformed into larval pupa intermediate at 1 ug/larva (reference value: 0).
Experiment [4] relates to Bombyx mori. Put plainly: Antijuvenile hormone activity against third-instar larvae of Bombyx mori assessed as precocious metamorphosis-inducing activity at 1 ug/larva.
The test system of experiment [5] is Bombyx mori. Put plainly: Antijuvenile hormone activity against third-instar larvae of Bombyx mori assessed as precocious metamorphosis-inducing activity at 10 ug/larva.
The subject of experiment [6] is Bombyx mori. Put plainly: Antijuvenile hormone activity against third-instar larvae of Bombyx mori assessed as precocious metamorphosis-inducing activity at 40 ug/larva.
In experiment [7] the test system is Bombyx mori. The experiment is described as follows: Antijuvenile hormone activity against allatectomized third-instar larvae of Bombyx mori assessed as number of larvae transformed into fifth-instar larvae at 40 ug/larva (reference value: 0).
The test system of experiment [8] is Bombyx mori. The experiment is described as follows: Antijuvenile hormone activity against allatectomized third-instar larvae of Bombyx mori assessed as number of larvae transformed into precocious pupa at 40 ug/larva (reference value: 10).
In experiment [9] the test system is Bombyx mori. The experiment is described as follows: Antijuvenile hormone activity against allatectomized third-instar larvae of Bombyx mori assessed as number of larvae transformed into larval pupa intermediate at 40 ug/larva (reference value: 0).

`COC(C)(C)CCC[C@H](C)C/C=C/C(C)=C/C(=O)OC(C)C` [METHOPRENE]: the Activity was determined as 10 with Bombyx mori [1], 0 in the experiment with Bombyx mori [2] and 0 with Bombyx mori [3].
As for `CCCOc1cc2c(cc1COc1ccc(C(=O)OCC)cc1)OC(C)(C)C=C2`, the figures for the Activity in the experiment on Bombyx mori [4], in the experiment on Bombyx mori [5] and in the experiment with Bombyx mori [6] were 0%, 0% and 16%, respectively.
In the case of `CCOC(=O)c1ccc(OCc2cc3c(cc2OC)CCCC3)cc1`, the figures for the Activity in the experiment on Bombyx mori [4], in the experiment on Bombyx mori [5] and in the experiment on Bombyx mori [6] were 0%, 10% and 30%, respectively.
As for `CCOC(=O)c1ccc(OCc2cc3c(cc2OC)C=CC(C)(C)O3)cc1`, the Activity in the experiment on Bombyx mori [1] worked out at 2; with Bombyx mori [7] it was 10; in the experiment with Bombyx mori [4] it was 75%; with Bombyx mori [5] it was 95%; with Bombyx mori [6] it was 100%; in the experiment on Bombyx mori [2] it was 2. The Activity in the experiment with Bombyx mori [8] turned out to be 0; in the experiment on Bombyx mori [3], 6; in the experiment with Bombyx mori [9] it was 0.
In the case of `CCOC(=O)c1ccc(OCc2cc3c(cc2OC)OCCO3)cc1`, the Activity in the experiment on Bombyx mori [4] is listed as 10%; in the experiment on Bombyx mori [5], 58%; with Bombyx mori [6] it was 79%.
For `CCOC(=O)c1ccc(OCc2cc3c(cc2OCc2ccccc2)C=CC(C)(C)O3)cc1`, in that order: 40%, 100% and 100%.
For `CCOC(=O)c1ccc(OCc2cc3c(cc2OCC)C=CC(C)(C)O3)cc1`, the Activity with Bombyx mori [4] was determined as 0%; in the experiment with Bombyx mori [5] it was 5%; with Bombyx mori [6], 20%.
For the molecule `CCOC(=O)c1ccc(OCc2cc3c(cc2OC)CCC(C)(C)O3)cc1`, the Activity was determined as 10 in the experiment on Bombyx mori [7]; 46% in the experiment on Bombyx mori [4]; 94% with Bombyx mori [5]; 87% with Bombyx mori [6]; 0 with Bombyx mori [8]; 0 in the experiment on Bombyx mori [9].
Consider `CCOC(=O)c1ccc(OCc2ccc3c(c2)OC(C)(C)C=C3)cc1`, for which the Activity came to 0% in the experiment on Bombyx mori [4], 20% with Bombyx mori [5] and 65% in the experiment with Bombyx mori [6].
Consider `CCOC(=O)c1ccc(OCc2cc(OC)c(OC)cc2OC)cc1`, for which the Activity with Bombyx mori [4], in the experiment with Bombyx mori [5] and in the experiment with Bombyx mori [6] was 0% throughout.
